The target in data set [1] is T1, Zinc finger protein mex-5 (Caenorhabditis elegans, UniProt Q9XUB2).
T1 sequence (Q9XUB2 whole entry): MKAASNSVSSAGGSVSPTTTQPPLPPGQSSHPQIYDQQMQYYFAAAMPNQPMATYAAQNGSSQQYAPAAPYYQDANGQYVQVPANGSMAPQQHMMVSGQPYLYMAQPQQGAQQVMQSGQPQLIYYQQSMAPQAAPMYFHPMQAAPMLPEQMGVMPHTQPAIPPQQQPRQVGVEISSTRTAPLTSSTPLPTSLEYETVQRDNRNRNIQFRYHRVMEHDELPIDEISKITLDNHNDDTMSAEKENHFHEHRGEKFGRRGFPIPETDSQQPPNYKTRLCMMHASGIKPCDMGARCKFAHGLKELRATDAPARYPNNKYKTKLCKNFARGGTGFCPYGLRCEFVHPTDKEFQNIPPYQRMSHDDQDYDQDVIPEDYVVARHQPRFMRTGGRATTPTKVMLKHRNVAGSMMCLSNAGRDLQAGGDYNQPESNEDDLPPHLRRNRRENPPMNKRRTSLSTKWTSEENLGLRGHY
The data set can be described thus: potency of MEX-5 RNA-binding blockers – biochemical, C. elegans, fluorescence polarization, dose response (AID 1960).

The target in data set [2] is T2, RNA-binding protein pos-1 (Caenorhabditis elegans, UniProt G5EF15).
T2 sequence (G5EF15 whole entry): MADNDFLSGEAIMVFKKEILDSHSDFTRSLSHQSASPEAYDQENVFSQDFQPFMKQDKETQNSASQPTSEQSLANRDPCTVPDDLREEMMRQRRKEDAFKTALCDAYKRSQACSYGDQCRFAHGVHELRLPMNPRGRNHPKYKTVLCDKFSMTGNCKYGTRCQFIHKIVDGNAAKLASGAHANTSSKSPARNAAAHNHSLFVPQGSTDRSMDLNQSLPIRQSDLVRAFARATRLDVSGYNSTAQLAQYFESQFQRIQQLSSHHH
Put plainly: disruptors of C. elegans POS-1 RNA interaction – biochemical, fluorescence polarization, dose response (AID 1964).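 Further: purified POS-1 fused to maltose binding protein made in E. coli; potency of compounds blocking POS-1 binding to fluorescent RNA.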 For orientation: Fluorescence polarisation rises when a labelled molecule tumbles more slowly, as on binding a larger partner.

Data set [3] deals with Luciferin 4-monooxygenase (Photinus pyralis, UniProt P08659). Put plainly: inhibition of purified Photinus pyralis luciferase – biochemical, luminescence, dose response (AID 1891).
Data set [4] in a line: Luminescence Cell-Based Dose Confirmation HTS to Identify Inhibitors of Platelet Dense Granule Release. [Related pubchem assays: 1663 (Primary HTS), 1678 (Summary of Project)]. In kind it is functional.
A short description of data set [5]: loss of viability in HepG2 cells – cell-based, CellTiter-Glo, cherry-picked, cytotoxicity control for Shn3 inhibitor project, dose response (AID 624134). In kind it is functional. (ATP-based viability assays read luminescence as a measure of living cells.)
Data set [6] in a line: non-specific 3'UTR reporter inhibition in Clone20-Shn3RL – cell-based, Renilla luciferase, cherry-picked, counter-screen for Shn3 inhibitor project, dose response (AID 624133). In kind it is functional. (Counterscreens check selectivity or assay interference.)
Data set [7] can be described thus: reduction of Shn3 3'UTR-driven luciferase in osteoblasts – cell-based, Clone20 osteoblasts, firefly luciferase, cherry-picked, dose response (AID 624132).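 Further: firefly luciferase luminescence from reporter carrying the Shn3 3'UTR in osteoblasts.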 In kind it is functional.
Data set [8] is described as follows: Luminescence Cell-Based Dose Confirmation HTS to Identify Activators of 5'UTR Stem-Loop Driven Alpha-Synuclein mRNA Translation in H4 Neuroglioblastoma Cells. [Related pubchem assays: 1829 (Project Summary), 1814 (Primary HTS)]. In kind it is functional.
Data set [9] in a line: Luminescence Cell-Based Dose Response HTS to Identify Activators of Luciferase Translation or Activity in H4 […] Cells. [Related pubchem assays: 1829 (Project Summary), 1814 (Primary HTS)]. In kind it is functional.
The subject of data set [10] is H4. The data set can be described thus: Luminescence Cell-Based Dose Response HTS to Identify Activators of 5'UTR Stem-Loop Driven Prion Protein mRNA Translation in H4 Neuroglioblastoma Cells. [Related pubchem assays: 1829 (Project Summary), 1814 (Primary HTS)]. In kind it is functional. The note with it: Homo sapiens.
For data set [11], the target named is Large T antigen (Simian virus 40, UniProt P03070). In kind it is functional, Betapolyomavirus macacae.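 Further: Confirmatory-stage PubChem screen for compounds that inhibit SV40 T antigen.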
Data set [12] concerns the target T3, Cytochrome P450 1A2 (Homo sapiens, UniProt P05177).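 Further: PubChem cytochrome P450 panel assay, CYP1A2 panel member.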
T3 sequence (P05177 whole entry): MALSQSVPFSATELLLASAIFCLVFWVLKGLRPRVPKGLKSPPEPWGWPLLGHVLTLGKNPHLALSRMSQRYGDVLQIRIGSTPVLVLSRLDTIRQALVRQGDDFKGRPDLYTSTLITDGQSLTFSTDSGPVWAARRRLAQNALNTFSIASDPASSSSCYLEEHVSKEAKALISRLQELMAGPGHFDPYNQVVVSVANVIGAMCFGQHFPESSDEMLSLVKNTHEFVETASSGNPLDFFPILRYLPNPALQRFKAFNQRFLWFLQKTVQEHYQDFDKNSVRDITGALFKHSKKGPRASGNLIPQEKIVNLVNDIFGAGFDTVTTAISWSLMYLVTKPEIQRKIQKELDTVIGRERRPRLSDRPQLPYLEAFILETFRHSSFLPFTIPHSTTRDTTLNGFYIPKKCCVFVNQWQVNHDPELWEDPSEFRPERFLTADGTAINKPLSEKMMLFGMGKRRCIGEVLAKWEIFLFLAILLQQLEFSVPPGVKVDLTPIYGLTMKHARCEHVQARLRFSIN

For data set [13], the target named is Cytochrome P450 2C19 (Homo sapiens, UniProt P33261). Put plainly: Cytochrome panel assay with activity outcomes. Panel member name: p450-cyp2c19 Compounds with AC50 equal or less than 10 uM are considered active. In kind it is functional.
Data set [14] deals with T4, Calpain-2 catalytic subunit (Sus scrofa, UniProt P43367).
T4 sequence (P43367 whole entry): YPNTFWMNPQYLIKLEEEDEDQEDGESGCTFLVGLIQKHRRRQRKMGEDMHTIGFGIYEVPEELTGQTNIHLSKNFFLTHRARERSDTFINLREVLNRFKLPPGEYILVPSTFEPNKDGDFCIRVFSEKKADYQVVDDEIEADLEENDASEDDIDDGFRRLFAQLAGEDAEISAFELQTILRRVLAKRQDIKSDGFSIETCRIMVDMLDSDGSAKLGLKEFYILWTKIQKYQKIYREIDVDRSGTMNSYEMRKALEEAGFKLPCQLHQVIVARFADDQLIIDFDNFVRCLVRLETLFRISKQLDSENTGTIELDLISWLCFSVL
Put plainly: m-calpain protease blockers, concentration series – biochemical, fluorogenic peptide substrate, dose response (AID 1420). In kind it is functional.

Data set [15] is described as follows: HIV-1 AD8 envelope cell-cell fusion blockers – cherry-pick, dose response (AID 652062).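 Further: luciferase signal from cell-cell fusion driven by HIV-1 clade B AD8 Env; potency is for inhibitors of fusion seen as a drop in luminescence.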 In kind it is functional, cell-based.
Data set [16] in a line: blockers of HIV-1 envelope-mediated cell-cell fusion – cherry-pick, dose response (AID 652057). In kind it is functional, cell-based.

For 35 compounds, EC50, AC50 and IC50 results are on record in ChEMBL document CHEMBL1201862, “PubChem BioAssay data set” (2004).

Calls of active or inactive are those of the source.

Sequence of Luciferin 4-monooxygenase (P08659 whole entry): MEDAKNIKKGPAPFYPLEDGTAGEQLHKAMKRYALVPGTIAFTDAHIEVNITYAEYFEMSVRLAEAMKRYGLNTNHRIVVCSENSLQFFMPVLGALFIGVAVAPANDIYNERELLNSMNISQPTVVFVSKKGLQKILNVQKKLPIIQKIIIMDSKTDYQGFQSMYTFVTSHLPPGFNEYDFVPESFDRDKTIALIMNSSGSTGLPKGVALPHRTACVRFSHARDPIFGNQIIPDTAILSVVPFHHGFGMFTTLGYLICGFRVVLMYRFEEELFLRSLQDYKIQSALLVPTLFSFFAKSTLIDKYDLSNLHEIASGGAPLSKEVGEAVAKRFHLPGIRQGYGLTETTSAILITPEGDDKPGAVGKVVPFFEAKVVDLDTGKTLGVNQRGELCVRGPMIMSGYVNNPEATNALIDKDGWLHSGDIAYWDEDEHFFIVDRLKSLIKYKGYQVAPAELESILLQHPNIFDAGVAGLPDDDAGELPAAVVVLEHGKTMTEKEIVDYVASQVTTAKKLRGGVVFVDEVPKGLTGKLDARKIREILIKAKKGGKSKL
Sequence of Cytochrome P450 2C19 (P33261 whole entry): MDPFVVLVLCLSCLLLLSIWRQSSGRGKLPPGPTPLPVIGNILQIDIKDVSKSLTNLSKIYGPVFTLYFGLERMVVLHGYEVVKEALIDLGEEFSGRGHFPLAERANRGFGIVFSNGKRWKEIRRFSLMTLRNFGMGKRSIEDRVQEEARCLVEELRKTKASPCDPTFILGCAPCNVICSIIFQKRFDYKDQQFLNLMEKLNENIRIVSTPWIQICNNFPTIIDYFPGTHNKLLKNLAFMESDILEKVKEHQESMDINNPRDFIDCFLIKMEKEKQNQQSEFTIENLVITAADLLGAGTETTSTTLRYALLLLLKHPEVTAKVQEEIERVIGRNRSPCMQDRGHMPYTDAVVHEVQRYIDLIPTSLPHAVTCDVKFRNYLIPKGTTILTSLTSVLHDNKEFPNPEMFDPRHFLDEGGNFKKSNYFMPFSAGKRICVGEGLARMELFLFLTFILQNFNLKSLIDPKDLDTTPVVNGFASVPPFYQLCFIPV
Sequence of Large T antigen (P03070 whole entry): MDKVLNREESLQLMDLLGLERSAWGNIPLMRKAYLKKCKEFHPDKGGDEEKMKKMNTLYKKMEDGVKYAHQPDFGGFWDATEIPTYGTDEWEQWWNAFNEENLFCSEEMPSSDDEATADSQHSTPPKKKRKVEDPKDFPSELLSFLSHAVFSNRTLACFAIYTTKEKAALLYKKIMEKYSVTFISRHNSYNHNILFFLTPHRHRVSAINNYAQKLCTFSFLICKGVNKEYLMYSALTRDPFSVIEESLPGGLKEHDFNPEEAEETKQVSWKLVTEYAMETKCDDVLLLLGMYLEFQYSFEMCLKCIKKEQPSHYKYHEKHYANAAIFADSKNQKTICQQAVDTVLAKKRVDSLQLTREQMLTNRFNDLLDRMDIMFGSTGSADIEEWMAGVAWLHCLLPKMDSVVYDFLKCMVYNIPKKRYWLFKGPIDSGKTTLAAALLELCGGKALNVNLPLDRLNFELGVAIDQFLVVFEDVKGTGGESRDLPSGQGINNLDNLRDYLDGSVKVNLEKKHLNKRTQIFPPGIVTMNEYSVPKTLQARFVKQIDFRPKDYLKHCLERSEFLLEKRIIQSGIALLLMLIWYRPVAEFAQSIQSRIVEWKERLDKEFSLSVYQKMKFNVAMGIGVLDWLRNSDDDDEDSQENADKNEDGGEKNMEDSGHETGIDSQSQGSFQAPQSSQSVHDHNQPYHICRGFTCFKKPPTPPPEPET

What is called EC50 is the concentration giving half of the maximal effect. Regarding `Cc1ccccc1N1C(=O)NC(=O)/C(=C\c2cc(C)n(C)c2C)C1=O`, the EC50 in data set [1] and in data set [2] was > 300 µM (not active) each time.
For the compound `O=C(NC1CC1)C1Nc2ccc(OC(F)(F)F)cc2C2C=CCC12` (centres undefined), the EC50 in data set [1] and in [2] was > 300 µM (not active) each time.
With `CCn1cc(NC(=O)Nc2ccccc2C(=O)OC)c(C(N)=O)n1`, the EC50 in [3] and in data set [4] was > 112 µM (not active) throughout.
By AC50 is commonly meant the concentration giving half of the maximal activity seen. For the compound `CC(Sc1nc2ccccc2c(=O)n1C)C(=O)Nc1ccc2c(c1)OCCO2` (centres undefined), the AC50 in [5] is > 70 µM (inactive); in data set [6] it was 9.21 µM (active); in data set [7], 1.94 µM (active).
As to `O=C(N/N=C/C(Br)=C/c1ccccc1)C1CC1`, the concentration giving a half-maximal response (EC50) was 18.7 µM (active) in [8], 60.3 µM (active) in data set [9] and 15.8 µM (active) in data set [10].
On the same counts, the results for `COc1cccc(-n2cnc3sc(-c4ccccc4)cc3c2=O)c1` are 0.185 µM (active), 0.124 µM (active) and 0.136 µM (active).
On the same counts, the results for `CCC(=O)N1CCc2nc(-c3ccccc3)sc2C1` are 7.33 µM (active), 20.4 µM (active) and 46.3 µM (active).
`CCC1CCCCN1CCCNC(=O)Cn1c2ccccc2c2nc(=O)cc(C)n21` (centres undefined): the EC50 in [8], in data set [9] and in [10] was > 120 µM (not active) throughout.
As usually defined, the IC50 is the midpoint of a concentration-inhibition curve. On to `CC(=O)NS(=O)(=O)c1ccc(/N=c2\ssc3c2-c2cc(C)ccc2NC3(C)C)cc1`, for which, in data set [11], the IC50 is > 100 µM (active).
As for `Cc1cc(NNC(=O)c2cccc(C(F)(F)F)c2)nc2c1c(C)nn2C`, the AC50 was 57 µM (active) in data set [5], 3.61 µM (active) in data set [6] and 2.43 µM (active) in [7].
For the compound `Cc1ccc(-c2nc3ncccn3c2NC(=O)C2CC2)cc1`, the AC50 in data set [12] is 15.8 µM (inconclusive); in data set [13] it was “inconclusive”. Besides, the EC50 in data set [3] and in data set [4] was > 112 µM (not active) throughout.
Take `CCOC(=O)c1ccc(NC(=O)Cn2c(-c3nonc3N)nc3ccccc32)cc1`: the IC50 in [14] is on record as 18.8 µM (not active).
In the case of `COc1ccc(COC(=O)Nc2cc3c(C(F)(F)F)nn(C)c3s2)cc1`, the IC50 in [14] is 14 µM (active).
As for `COC(=O)c1ccc(NC(S)=NC2CC3CCC2C3)cc1` (centres undefined), in data set [14], the IC50 is 16.4 µM (active).
Consider `Cc1ccc(C(=O)C2CCN(CC(=O)Nc3ccc4c(c3)OCCO4)CC2)cc1`, for which the EC50 in data set [3] and in [4] was > 112 µM (not active) throughout.
Turning to `COc1cc(C2C(C#N)=C(N)OC3=C2C(=O)CC(C)(C)C3)ccc1OCCN1CCOCC1` (centres undefined), the EC50 in [1] and in [2] was > 300 µM (not active) in each case.
On to `COc1ccc(C(=O)COC(=O)c2cc(O)nc3ccccc23)c(OC)c1`, for which the figures for the EC50 in [8], in [9] and in data set [10] were 8.87 µM (active), 54 µM (active) and 20.7 µM (active), respectively.
On to `O=C(NCCCN1CCOCC1)C1Nc2ccc(OC(F)(F)F)cc2C2C=CCC12` (centres undefined), for which the EC50 in [1] and in [2] was > 300 µM (not active) throughout.
Turning to `O=C(NC1CCCC1)c1csc2c1CCCC2`, the EC50 in data set [3] and in data set [4] was > 112 µM (not active) each time.
Turning to `COc1ccc(C(=O)CSc2nc(N)nc(SC)c2C#N)cc1`, the IC50 in [14] was 17.3 µM (not active).
Turning to `CC1OC(Oc2c(-c3cc(O)c(O)c(O)c3)oc3cc(O)cc(O)c3c2=O)C(O)C(O)C1O` (centres undefined), the EC50 in data set [1] is 17.2 µM (active); in data set [2], 18 µM (active).
With `C[C@@H]1CN([C@@H](C)CO)S(=O)(=O)c2ccc(-c3cccc(F)c3)cc2O[C@@H]1CN(C)S(=O)(=O)c1ccc(F)cc1`, the AC50 in [15] is 24.2 µM (active); in [16] it was 1.34 µM (active).
As to `Cc1ccc(NC(=O)CN2CCC(Cc3ccccc3)CC2)cc1S(=O)(=O)N(C)C`, the IC50 in data set [14] is 27.3 µM (not active).
On to `CCOc1cc(/C=N/NC(=O)c2ccncc2)ccc1OS(C)(=O)=O`, for which the IC50 in data set [14] is < 0.4 µM (not active).
In the case of `c1ccc2[nH]c(-c3ccc4c(c3)OCO4)nc2c1`, the EC50 in data set [3] was 1.16 µM (active); in data set [4] it was 6.52 µM (active).
Turning to `CC(CNC(=O)c1cc(COc2ccc3ncccc3c2)on1)c1ccccc1` (centres undefined), the results for the AC50 in data set [5], in data set [6] and in [7] were 48.9 µM (active), 11.2 µM (active) and 3.73 µM (active), respectively.
Take `COc1ccccc1/C=C(/C(=O)OCC(=O)Nc1ccccc1C)c1ccccc1`: the IC50 in data set [14] is 9.36 µM (not active).
`Cc1ccc(C)c(N2CCN(C(=O)CCS(=O)(=O)c3ccc4c(c3)NC(=O)C(C)S4)CC2)c1` (centres undefined): the figures for the AC50 in data set [5], in data set [6] and in data set [7] were 4.58 µM (active), 8.6 µM (active) and 4.47 µM (active), respectively.
Consider `Cc1ccc(-c2nnc(CCC(=O)NCC3C4CC5CC(C4)CC3C5)o2)s1` (centres undefined), for which the concentration giving a half-maximal response (EC50) in data set [8] was 11.6 µM (active); in data set [9] it was 17.6 µM (active); in data set [10], 20.2 µM (active).
For `Cc1ccc2nc(N3CCN(C(=O)c4ccco4)CC3)sc2c1`, the EC50 was 5.76 µM (active) in data set [8], > 120 µM (not active) in [9] and 34.9 µM (active) in data set [10].
Consider `CC(=O)C1=C(C)NC(SCC(=O)c2ccccc2)=C(C#N)C1c1ccco1` (centres undefined), for which the figures for the EC50 in data set [8], in data set [9] and in [10] were 11 µM (active), 26.5 µM (active) and 19.5 µM (active), respectively.
`CCOC(=O)c1ccc(/N=c2\scc(C)n2CC)cc1`: in [14], the IC50 is reported as > 50 µM (not active).
For `CN1C(=O)c2cc(NC(=O)c3cscn3)ccc2OC[C@H]2O[C@H](CC(=O)NCc3ccc(Cl)c(Cl)c3)CC[C@H]21`, the AC50 in data set [15] was 41.8 µM (active); in [16], 11.3 µM (active).
Regarding `CCCCNC(=O)c1ccccc1C(=O)NCCCC`, in data set [14], the IC50 is < 0.4 µM (not active).
Take `CCOC(=O)C(OC(=O)c1sc(=S)n(C)c1C)C(C)=O` (centres undefined): the EC50 in data set [3] and in [4] was > 112 µM (not active) throughout.
